# Target: T1, 5-lipoxygenase (Homo sapiens, UniProt P09917)
# T1 construct: the 5-LO activity in human whole blood; from tissue; host or cells: heparinized human whole blood
# T1 sequence (P09917 1-674): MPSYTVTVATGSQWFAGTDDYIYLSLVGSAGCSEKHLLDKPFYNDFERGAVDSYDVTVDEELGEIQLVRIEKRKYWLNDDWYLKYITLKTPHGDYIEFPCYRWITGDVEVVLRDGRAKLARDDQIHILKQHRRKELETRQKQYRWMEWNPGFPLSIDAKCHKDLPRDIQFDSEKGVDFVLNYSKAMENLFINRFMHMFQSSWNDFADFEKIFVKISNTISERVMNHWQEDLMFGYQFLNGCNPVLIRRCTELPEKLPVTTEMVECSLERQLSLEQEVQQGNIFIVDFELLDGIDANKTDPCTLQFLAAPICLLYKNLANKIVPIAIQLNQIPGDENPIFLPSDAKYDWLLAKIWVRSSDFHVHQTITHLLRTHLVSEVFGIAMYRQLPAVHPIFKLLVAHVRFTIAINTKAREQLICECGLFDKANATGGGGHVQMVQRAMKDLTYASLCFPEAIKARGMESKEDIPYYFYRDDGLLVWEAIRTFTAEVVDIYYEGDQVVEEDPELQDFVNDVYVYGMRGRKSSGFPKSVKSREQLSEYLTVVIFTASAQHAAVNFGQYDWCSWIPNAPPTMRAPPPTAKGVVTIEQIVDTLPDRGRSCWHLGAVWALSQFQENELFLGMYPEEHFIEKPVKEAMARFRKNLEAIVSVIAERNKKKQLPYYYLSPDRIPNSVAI
# Assay: 5-lipoxygenase inhibition in human blood (LTB4 formation)
# Type: cell-based
# Details: 0.5 h; 10^-5 mole/liter; human whole blood, 37° C.; read-out: In vitro % inhibitory activity on LTB4 formation in human blood stimulated by calcimycin
# Protocol: 4c. In vitro determination of 5-lipoxygenase inhibition in human blood.
# The inhibitory activity of the test substances on the 5-LO activity in human whole blood taking place after stimulation by calcimycin is investigated according to the method described by P. Gresele et al. (Biochem. Biophys. Commun. 137 (1986), 334).
# For carrying out the test, human blood is collected in sterile 50 ml test tubes which contain 10 units of heparin/ml of blood and incubated for 5-10 minutes at 37° C. Amounts of test substance, dissolved in 10 μl of dimethylformamide, are added to 2 ml samples of this blood such that a final concentration of test substance of 10 μmol/l is achieved in the samples. Only 10 μl of the solvent were added to control samples. The samples were then incubated for 10 minutes at 37° C. In order to stimulate LTB4 synthesis, an amount of calcimycin, dissolved in 200 μl of plasma, was added to the samples such that a calcimycin concentration of 60 μmol/l was achieved, and the samples were incubated for a further 30 minutes at 37° C. The reaction was then terminated by addition of 200 μl of an ethylene glycol tetraacetate solution (corresponding to an ethylene glycol acetate concentration in the sample of 100 mmol/l). The samples are kept in an ice-bath for 10 minutes and then centrifuged (5 minutes at 1000×g). The supernantant liquids, which contain the LTB4 formed during the reaction time, are each separated and, for precipitation of the proteins contained therein, mixed with 3 ml of acetone and kept for 45 minutes at 4° C. Then the samples are centrifuged again (5 minutes at 1500×g), the supernatant liquids are separated, and the content of LTB4 therein is determined in a known manner by means of an enzyme immunoassay (=EIA). From the measured LTB4 values, the inhibitory activity of the test substances in human whole blood was calculated in % inhibition of LTB4 synthesis in comparison to the control samples containing no test substance.
row,Structure (SMILES),inhibition at 10 µM [%]
1,"Cc1ccnc(N2CCN(CCC3Cn4c(-c5ccc(O)cc5)c(C)c5c(O)ccc(c54)O3)CC2)c1 (stereo not shown) [Example 4, 2,3-Dihydro-7-hydroxy-5-(4-hydroxyphenyl)-6-methyl-2-[2-(4-(4-methylpyridin-2-yl)piperazin-1-yl)ethyl]pyrrolo[1,2,3-de]-1,4-benzoxazine]",86
2,Cc1ccnc(N2CCN(C(=O)CCC3Cn4c(-c5cc(C)c(O)c(C)c5)c(C)c5c(O)ccc(c54)O3)CC2)c1 (stereo not shown) [Example 67],100
3,Cc1ccnc(N2CCN(C(=O)CCC3Cn4c(-c5ccc(O)cc5)c(C)c5c(O)ccc(c54)O3)CC2)c1 (stereo not shown) [Example 69],95
4,Cc1cc(-c2c(C)c3c(O)ccc4c3n2CC(CCC(=O)N2CCN(c3ccccn3)CC2)O4)cc(C)c1O (stereo not shown) [Example 71],100
5,COc1cc(-c2c(C)c3c(O)ccc4c3n2CC(CCC(=O)N2CCN(c3ccccn3)CC2)O4)cc(C)c1O (stereo not shown) [Example 72],95
6,Cc1ccnc(N2CCN(CCCC3Cn4c(-c5cc(C)c(O)c(C)c5)c(C)c5c(O)ccc(c54)O3)CC2)c1 (stereo not shown) [Example 73],100
7,Cc1cccnc1N1CCN(CCCC2Cn3c(-c4cc(C)c(O)c(C)c4)c(C)c4c(O)ccc(c43)O2)CC1 (stereo not shown) [Example 74],100
8,Cc1cc(-c2c(C)c3c(OCc4ccccc4)ccc4c3n2CC(CCC(=O)N2CCN(c3ccccn3)CC2)O4)cc(C)c1O (stereo not shown) [Example 75],96

# Test system: cutaneous histamine induced anaphylactoid reactions
# Assay: inhibition of the anaphylactoid cutaneous reaction induced by histamine
# Type: in vivo, Sprague-Dawley rats
# Details: Rattus norvegicus, po, 0.5 h; 2 × 10^-5 mole/kg p.o., one hour before histamine; assessed 30 minutes after provocation; read-out: Inhibitory action against cutaneous histamine induced anaphylactoid reactions in rats, % inhibition
# Protocol: 1. Determination of the inhibition of the anaphylactoid cutaneous reaction induced by histamine.
# The inhibition of the anaphylactoid cutaneous reaction induced by histamine was determined in Sprague-Dawley rats having body weights of 150-180 g.
# In order to determine the histamine-induced anaphylactoid skin reaction, 50 μl of a physiological saline solution containing 0.8 mg/ml of histamine were injected into the animals intradermally on one flank. Immediately afterward, a solution of 26.4 mg/kg of a blue dye (Evan's Blue) was administered i.v. to the animals.
# The test substances were dissolved in distilled water which contains 1% by volume of dimethylformamide and 1% by volume of Tween®20 (=polyoxyethylene(20) sorbitan monolaurate). One hour before the histamine injection, each animal received 2×10^-5 mol/kg of test substance, in each case administered orally in 0.5 ml of solution. A control group received only the solvent for comparison.
# The histamine-induced anaphylactoid reactions which manifested themselves by edema formation, swelling and exudation of blue dye are assessed 30 minutes after provocation by the histamine injection. This is carried out by visual determination of the extent of the exudation of blue dye at the sites of edema formation. With the aid of comparison scales, the percentage inhibition of the anaphylactoid reactions produced by the test substances is determined in comparison with the reactions of the control animals not treated with test substance.
# The results obtained with compounds of the formula I by the above test method are reproduced in the following table A. The example numbers given as identifiers for the compounds of formula I refer to the subsequent preparative examples.
row,Structure (SMILES),inhibition in vivo at 20 µmol/kg [%]
1,Cc1ccnc(N2CCN(C(=O)CCC3Cn4c(-c5ccc(O)cc5)c(C)c5cccc(c54)O3)CC2)c1 (stereo not shown) [Example 15],32
2,Cc1ccnc(N2CCN(C(=O)CCC3Cn4c(-c5cc(C)c(O)c(C)c5)c(C)c5cccc(c54)O3)CC2)c1 (stereo not shown) [Example 25],30
3,Cc1cc(-c2c(C)c3c(F)ccc4c3n2CC(CCN2CCN(c3ccccn3)CC2)O4)cc(C)c1O (stereo not shown) [Example 27],55
4,Cc1ccnc(N2CCN(CCCC3Cn4c(-c5cc(C)c(O)c(C)c5)c(C)c5c(F)ccc(c54)O3)CC2)c1 (stereo not shown) [Example 29],46
5,COc1cc(-c2c(C)c3cccc4c3n2CC(CCC(=O)N2CCN(c3ccc(C)cn3)CC2)O4)ccc1O (stereo not shown) [Example 39],32
6,Cc1ccnc(N2CCN(CCC3Cn4c(-c5cc(C)c(O)c(C)c5)c(C)c5cc(F)cc(c54)O3)CC2)c1 (stereo not shown) [Example 42],36
7,COc1cc2c3c(c1)c(C)c(-c1cc(C)c(O)c(C)c1)n3CC(CCN1CCN(c3cc(C)ccn3)CC1)O2 (stereo not shown) [Example 43],32
8,Cc1ccnc(N2CCN(CCC3Cn4c(-c5cc(C)c(O)c(C)c5)c(C)c5cc(O)cc(c54)O3)CC2)c1 (stereo not shown) [Example 44],37

# From patent US5474988A, “5-phenylpyrrolo-1,4-benzoxazine and 5-phenylpyrrolo-1,4-benzothiazine compounds, process and intermediates for their production and pharmaceutical compositions containing them” (Kali-Chemie Pharma GmbH, priority 1993, dated 1995)
